# Results reported in ChEMBL document CHEMBL1201862, “PubChem BioAssay data set” (2004).
# Activity calls are given as the source filed them.
# Assays:
# Leucine aminopeptidase = biological target: T1, Leucine aminopeptidase (Plasmodium falciparum 3D7, UniProt Q8IL11); experiment: P. falciparum M17LAP inhibitors, primary screen, biochemical, fluorogenic H-Leu-NHMec substrate, 1536-well (AID 1619); assay type: functional
# T1 sequence (Q8IL11 whole entry): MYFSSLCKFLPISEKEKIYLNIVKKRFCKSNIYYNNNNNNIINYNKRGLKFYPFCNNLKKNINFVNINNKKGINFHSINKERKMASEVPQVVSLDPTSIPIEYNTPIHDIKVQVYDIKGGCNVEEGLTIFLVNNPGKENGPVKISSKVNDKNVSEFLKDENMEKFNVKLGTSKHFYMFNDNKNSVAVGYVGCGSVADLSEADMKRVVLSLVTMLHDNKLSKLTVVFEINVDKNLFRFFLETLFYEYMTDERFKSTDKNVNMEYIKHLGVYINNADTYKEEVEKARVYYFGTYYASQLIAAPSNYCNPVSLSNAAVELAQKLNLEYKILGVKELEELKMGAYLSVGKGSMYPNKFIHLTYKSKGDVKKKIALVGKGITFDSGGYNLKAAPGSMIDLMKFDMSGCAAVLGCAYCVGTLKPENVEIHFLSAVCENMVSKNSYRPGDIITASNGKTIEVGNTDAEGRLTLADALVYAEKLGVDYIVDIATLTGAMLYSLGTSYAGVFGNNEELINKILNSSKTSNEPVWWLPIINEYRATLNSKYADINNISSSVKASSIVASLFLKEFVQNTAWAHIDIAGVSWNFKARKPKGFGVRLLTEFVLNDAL
# [1] = biological target: T2, RNA-binding protein pos-1 (Caenorhabditis elegans, UniProt G5EF15); experiment: disruptors of C. elegans POS-1 RNA interaction – biochemical, fluorescence polarization, dose response (AID 1964);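 note: purified POS-1 fused to maltose binding protein made in E. coli; potency of compounds blocking POS-1 binding to fluorescent RNA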
# T2 sequence (G5EF15 whole entry): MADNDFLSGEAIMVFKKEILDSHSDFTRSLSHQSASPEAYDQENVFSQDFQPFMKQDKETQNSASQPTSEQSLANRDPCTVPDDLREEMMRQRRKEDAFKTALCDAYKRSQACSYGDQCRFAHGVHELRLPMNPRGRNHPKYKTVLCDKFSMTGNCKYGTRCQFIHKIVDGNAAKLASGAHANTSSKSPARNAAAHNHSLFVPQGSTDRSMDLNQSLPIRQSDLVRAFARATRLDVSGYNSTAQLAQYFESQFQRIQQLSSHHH
# SUMO-activating enzyme [2] = biological target: T3, SUMO-activating enzyme (Homo sapiens, UniProt Q9UBT2); experiment: blockers of UBC9-mediated SUMO conjugation – biochemical, AlphaScreen, SUMOylation inhibitor project, confirmation (AID 2018); assay type: functional
# T3 sequence (Q9UBE0 whole entry): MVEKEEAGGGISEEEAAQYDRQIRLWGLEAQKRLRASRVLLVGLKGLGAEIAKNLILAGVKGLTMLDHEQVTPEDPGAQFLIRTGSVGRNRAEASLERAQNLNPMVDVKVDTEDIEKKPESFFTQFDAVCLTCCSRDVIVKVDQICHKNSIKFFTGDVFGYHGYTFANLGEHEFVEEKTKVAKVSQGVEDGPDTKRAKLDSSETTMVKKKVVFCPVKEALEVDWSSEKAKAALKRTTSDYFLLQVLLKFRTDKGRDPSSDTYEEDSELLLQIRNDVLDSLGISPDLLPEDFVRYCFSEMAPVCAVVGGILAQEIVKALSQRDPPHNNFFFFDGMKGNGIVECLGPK
# T3 sequence (Q9UBT2 whole entry): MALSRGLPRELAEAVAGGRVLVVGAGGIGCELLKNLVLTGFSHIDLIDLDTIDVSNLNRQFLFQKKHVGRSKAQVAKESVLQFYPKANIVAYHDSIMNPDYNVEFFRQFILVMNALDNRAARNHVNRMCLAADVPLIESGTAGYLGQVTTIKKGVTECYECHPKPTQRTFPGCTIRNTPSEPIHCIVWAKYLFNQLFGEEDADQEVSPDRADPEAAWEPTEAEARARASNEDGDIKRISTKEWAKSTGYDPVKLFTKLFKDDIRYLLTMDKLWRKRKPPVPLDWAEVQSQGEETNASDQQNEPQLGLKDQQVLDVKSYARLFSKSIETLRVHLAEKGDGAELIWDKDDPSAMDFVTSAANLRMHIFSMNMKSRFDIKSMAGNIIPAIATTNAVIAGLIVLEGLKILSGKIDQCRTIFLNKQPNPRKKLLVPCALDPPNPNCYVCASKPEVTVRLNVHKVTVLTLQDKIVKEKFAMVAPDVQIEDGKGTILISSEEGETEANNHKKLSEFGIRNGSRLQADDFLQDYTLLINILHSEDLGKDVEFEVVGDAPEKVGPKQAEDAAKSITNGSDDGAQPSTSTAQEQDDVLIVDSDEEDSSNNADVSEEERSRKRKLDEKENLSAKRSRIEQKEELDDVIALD
# [3] = biological target: T4, Zinc finger protein mex-5 (Caenorhabditis elegans, UniProt Q9XUB2); experiment: potency of MEX-5 RNA-binding blockers – biochemical, C. elegans, fluorescence polarization, dose response (AID 1960)
# T4 sequence (Q9XUB2 whole entry): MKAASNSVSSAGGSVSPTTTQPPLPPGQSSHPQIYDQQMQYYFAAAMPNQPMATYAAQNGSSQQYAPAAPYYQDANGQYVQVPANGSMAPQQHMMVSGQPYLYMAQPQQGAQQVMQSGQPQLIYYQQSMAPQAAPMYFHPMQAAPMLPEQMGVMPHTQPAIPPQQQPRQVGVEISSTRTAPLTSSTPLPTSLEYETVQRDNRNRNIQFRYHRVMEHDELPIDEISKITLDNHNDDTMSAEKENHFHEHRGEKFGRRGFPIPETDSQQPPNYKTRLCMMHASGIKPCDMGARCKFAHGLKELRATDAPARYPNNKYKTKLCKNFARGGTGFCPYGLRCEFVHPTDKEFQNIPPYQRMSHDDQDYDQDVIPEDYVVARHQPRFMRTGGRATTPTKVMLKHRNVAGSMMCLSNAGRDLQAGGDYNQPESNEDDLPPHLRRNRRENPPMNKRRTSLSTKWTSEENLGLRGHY
# SUMO-activating enzyme [4] = biological target: T3, SUMO-activating enzyme; experiment: blockers of SAE1/SAE2–UBC9 SUMO transfer – biochemical, HTRF, uHTS, primary screen (AID 2006); assay type: protein-complex assay
# [5] = biological target: Induced myeloid leukemia cell differentiation protein Mcl-1 (Homo sapiens, UniProt Q07820); assay type: functional
# Sequence of Induced myeloid leukemia cell differentiation protein Mcl-1 (Q07820 whole entry): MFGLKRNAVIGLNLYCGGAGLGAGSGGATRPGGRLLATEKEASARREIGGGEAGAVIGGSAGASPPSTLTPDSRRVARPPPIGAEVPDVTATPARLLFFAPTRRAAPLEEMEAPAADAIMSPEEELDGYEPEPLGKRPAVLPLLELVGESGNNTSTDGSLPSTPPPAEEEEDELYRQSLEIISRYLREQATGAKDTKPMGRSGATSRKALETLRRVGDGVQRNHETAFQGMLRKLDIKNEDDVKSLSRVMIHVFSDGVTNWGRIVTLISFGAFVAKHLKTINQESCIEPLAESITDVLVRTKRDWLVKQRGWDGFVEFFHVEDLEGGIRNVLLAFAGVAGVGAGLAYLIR
# [6] = biological target: Eukaryotic translation initiation factor 4E (Mus musculus, UniProt P63073); experiment: blockers of eIF4G binding by eIF4E – biochemical, TR-FRET, dose response (AID 855); assay type: functional;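 note: potency for disrupting eIF4E binding to eIF4GI seen as loss of FRET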
# Sequence of Eukaryotic translation initiation factor 4E (P63073 whole entry): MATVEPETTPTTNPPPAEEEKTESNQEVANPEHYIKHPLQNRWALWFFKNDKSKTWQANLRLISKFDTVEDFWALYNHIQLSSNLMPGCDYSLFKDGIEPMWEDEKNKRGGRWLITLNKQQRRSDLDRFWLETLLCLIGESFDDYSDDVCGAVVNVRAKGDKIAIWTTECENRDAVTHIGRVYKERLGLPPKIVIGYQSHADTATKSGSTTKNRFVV
# [7] = biological target: T5, Eukaryotic translation initiation factor 2-alpha kinase 3 (Homo sapiens, UniProt Q9NZJ5); experiment: Dose response cell-based high-throughput screening assay to measure PERK inhibition. [Related pubchem assays: 1416 ]; assay type: functional
# T5 sequence (Q9NZJ5 whole entry): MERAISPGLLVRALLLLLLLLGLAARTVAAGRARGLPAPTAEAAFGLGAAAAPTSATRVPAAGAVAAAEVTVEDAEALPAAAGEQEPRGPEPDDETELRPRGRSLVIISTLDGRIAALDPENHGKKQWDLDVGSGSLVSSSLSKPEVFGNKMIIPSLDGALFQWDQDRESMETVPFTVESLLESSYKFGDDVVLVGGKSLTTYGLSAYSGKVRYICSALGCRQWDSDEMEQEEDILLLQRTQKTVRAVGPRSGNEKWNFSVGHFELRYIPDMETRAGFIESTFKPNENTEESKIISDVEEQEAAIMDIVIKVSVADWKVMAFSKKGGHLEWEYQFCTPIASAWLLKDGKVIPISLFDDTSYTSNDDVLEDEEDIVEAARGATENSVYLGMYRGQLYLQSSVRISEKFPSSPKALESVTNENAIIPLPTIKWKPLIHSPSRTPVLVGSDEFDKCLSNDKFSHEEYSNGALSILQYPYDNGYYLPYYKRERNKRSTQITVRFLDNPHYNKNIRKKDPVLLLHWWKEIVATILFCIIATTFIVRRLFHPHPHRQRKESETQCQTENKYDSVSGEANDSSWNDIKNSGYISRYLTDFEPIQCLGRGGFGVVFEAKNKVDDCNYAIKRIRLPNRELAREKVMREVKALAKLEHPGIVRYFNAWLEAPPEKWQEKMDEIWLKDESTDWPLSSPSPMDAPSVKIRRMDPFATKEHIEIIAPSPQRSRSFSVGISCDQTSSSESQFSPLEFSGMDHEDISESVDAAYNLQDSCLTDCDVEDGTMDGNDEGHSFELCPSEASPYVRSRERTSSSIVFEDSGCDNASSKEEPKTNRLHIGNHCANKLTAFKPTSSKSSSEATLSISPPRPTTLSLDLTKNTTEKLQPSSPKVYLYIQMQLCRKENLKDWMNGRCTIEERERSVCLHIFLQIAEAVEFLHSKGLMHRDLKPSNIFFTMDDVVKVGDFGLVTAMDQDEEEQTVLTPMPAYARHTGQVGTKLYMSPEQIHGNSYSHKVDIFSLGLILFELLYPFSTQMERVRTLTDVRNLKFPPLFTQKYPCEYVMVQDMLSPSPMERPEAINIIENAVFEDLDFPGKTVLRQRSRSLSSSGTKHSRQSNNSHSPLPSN
# [8] = biological target: T5, Eukaryotic translation initiation factor 2-alpha kinase 3; experiment: Counterscreen assay for PERK inhibitors: Dose response cell-based high throughput screening assay to measure inhibition of PERK at 6 hours. [Related pubchem assays: 1522, 1416 ]; assay type: functional
# [9] = biological target: Acyl-homoserine lactone acylase PvdQ (Pseudomonas aeruginosa (strain LESB58), UniProt Q9I194); experiment: PvdQ acylase enzyme activity blockers – biochemical, fluorescence, plate reader and imaging, cherry-picks, dose response (AID 493231)
# Hexokinase HKDC1 = biological target: T6, Hexokinase HKDC1 (Homo sapiens, UniProt Q2TB90); experiment: inhibition of HKDC1 glucose phosphorylation – biochemical, W721R variant, dose response (AID 504729); assay type: functional
# T6 sequence (Q2TB90 whole entry): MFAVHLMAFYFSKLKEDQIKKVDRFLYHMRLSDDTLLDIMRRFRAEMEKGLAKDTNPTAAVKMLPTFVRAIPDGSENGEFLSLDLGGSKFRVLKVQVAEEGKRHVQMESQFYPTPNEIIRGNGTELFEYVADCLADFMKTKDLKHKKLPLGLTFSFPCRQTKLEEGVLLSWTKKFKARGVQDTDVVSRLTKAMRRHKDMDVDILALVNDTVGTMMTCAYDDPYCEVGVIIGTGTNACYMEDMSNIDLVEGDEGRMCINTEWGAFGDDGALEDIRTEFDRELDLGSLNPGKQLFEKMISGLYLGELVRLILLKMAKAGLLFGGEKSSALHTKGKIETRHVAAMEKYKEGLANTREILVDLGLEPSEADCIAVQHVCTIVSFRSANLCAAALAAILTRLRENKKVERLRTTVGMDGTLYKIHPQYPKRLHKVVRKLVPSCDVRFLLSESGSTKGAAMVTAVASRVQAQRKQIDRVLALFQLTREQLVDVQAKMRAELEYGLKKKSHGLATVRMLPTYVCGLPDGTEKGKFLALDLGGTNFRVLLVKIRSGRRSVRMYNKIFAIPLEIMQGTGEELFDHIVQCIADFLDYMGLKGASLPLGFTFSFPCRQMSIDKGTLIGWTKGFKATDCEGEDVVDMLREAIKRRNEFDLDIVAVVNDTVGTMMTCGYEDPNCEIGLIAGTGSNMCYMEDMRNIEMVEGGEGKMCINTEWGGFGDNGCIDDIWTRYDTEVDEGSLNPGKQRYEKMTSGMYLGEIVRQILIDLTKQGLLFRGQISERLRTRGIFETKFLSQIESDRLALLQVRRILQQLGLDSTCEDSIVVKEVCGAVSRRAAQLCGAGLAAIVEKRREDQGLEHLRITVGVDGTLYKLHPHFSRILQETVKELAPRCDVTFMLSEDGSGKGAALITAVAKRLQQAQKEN
# Bcl-2-like protein 10 = Bcl-2-like protein 10 (Homo sapiens, UniProt Q9HD36); experiment: Bcl-B/TR3 peptide binding disruption – biochemical, fluorescence polarization, FITC-TR3 peptide, selectivity assay for Bfl-1 inhibitor project, primary screen (AID 748);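 note: fluorescence polarization from a fluorescein-labelled TR3 peptide binding purified Bcl-B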
# Sequence of Bcl-2-like protein 10 (Q9HD36 whole entry): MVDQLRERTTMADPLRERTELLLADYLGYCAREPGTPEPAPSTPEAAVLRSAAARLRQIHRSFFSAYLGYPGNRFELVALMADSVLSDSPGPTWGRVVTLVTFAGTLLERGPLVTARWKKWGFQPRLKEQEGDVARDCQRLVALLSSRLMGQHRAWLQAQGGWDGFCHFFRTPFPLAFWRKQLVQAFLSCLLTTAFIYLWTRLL
# Estrogen receptor beta = Estrogen receptor beta (Homo sapiens, UniProt Q92731);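 note: recombinant ER-beta bound to coactivator SRC1 peptide in presence of estradiol agonist; inhibitors block coactivator peptide binding and lower the FRET signal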
# Sequence of Estrogen receptor beta (Q92731 whole entry): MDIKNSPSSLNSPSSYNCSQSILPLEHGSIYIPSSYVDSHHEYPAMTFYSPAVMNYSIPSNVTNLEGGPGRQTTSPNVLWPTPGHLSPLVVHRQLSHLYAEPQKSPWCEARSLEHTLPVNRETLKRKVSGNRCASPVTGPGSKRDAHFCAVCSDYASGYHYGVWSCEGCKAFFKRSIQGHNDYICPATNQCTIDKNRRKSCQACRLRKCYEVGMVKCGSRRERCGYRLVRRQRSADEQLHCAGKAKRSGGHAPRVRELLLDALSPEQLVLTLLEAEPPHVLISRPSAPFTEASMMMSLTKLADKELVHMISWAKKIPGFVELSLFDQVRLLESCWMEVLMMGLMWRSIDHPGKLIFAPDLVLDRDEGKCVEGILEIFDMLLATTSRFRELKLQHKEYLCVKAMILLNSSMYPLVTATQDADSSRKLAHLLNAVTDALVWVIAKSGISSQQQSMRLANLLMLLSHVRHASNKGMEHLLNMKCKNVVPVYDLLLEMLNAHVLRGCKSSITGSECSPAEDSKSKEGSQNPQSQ
# [10] = biological target: C-C chemokine receptor type 6 (Homo sapiens, UniProt P51684); experiment: antagonism of CCR6 beta-arrestin recruitment – cell-based, luminescent beta-arrestin readout, dose response (AID 504728); assay type: functional
# Sequence of C-C chemokine receptor type 6 (P51684 whole entry): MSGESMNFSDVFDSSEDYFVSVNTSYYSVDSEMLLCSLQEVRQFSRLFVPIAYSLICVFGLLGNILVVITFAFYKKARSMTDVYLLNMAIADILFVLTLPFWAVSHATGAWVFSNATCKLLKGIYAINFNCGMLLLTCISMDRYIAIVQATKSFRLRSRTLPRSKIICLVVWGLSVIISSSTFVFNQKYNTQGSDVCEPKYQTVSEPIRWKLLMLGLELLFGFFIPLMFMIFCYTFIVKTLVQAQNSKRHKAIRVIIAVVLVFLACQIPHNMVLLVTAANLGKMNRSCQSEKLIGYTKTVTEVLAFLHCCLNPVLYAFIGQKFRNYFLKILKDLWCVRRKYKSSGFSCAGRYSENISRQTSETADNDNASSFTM
# Beta-galactosidase = Beta-galactosidase (Escherichia coli, UniProt Q8VNN2); experiment: detection-enzyme interference by beta-gal modulators – biochemical, E. coli enzyme, set 3, artefact control for CCR6 antagonist project, dose response (AID 504712); assay type: functional
# [11] = biological target: Metabotropic glutamate receptor 4 (Rattus norvegicus, UniProt P31423); experiment: Modulation of the Metabotropic Glutamate Receptor mGluR4: Rat PAM Potency. [Related pubchem assays (depositor defined):AID2437, AID2807]; assay type: functional
# Sequence of Metabotropic glutamate receptor 4 (P31423 whole entry): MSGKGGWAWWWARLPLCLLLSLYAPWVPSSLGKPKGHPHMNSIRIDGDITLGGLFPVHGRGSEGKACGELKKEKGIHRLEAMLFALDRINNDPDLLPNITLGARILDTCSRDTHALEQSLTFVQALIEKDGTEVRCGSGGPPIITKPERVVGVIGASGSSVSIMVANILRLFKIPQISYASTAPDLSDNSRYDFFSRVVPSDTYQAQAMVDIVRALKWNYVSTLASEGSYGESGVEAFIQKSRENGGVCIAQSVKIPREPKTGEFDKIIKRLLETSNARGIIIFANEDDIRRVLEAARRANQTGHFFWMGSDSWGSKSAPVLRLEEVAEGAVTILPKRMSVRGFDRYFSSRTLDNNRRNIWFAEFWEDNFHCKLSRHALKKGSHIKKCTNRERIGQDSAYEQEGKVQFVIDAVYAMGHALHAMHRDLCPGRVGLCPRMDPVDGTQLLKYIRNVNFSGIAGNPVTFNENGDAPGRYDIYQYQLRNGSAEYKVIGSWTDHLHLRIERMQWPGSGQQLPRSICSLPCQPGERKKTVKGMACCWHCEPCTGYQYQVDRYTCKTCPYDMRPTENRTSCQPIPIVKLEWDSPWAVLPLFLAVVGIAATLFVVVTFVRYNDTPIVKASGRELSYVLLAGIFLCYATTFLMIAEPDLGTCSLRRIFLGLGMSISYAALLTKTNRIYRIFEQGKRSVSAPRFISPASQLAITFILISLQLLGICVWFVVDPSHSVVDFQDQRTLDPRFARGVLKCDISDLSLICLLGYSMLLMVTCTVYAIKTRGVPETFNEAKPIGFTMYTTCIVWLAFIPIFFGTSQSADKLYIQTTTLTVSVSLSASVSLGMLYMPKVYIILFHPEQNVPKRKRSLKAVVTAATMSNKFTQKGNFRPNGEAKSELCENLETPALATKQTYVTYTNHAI
smiles,measurement,setting,value
CC1=C(C#N)C(=O)NC(=O)/C1=C\c1ccc(-c2ccc(C)cc2[N+](=O)[O-])o1,IC50,Leucine aminopeptidase,13.1 µM (active)
same,EC50,[1],36.4 µM (active)
same,IC50,SUMO-activating enzyme [2],5.46 µM (active)
same,EC50,[3],21.8 µM (active)
same,IC50,SUMO-activating enzyme [4],35.6 µM (active)
same,IC50,[5],2.68 µM (active)
same,IC50,[6],50 µM (inactive)
Cc1ccc(C)c(OCC(=O)Nc2cc(C(=O)O)cc(C(=O)O)c2)c1,EC50,[7],> 55.7 µM (not active)
same,EC50,[8],> 55.7 µM (not active)
OC(c1cccc(Cl)c1)c1nccc2ccccc12 (stereo not drawn),AC50,[9],7.66 µM (active)
CCOC(=O)c1ccc(NC(=O)CSc2n[nH]c(-c3ccncc3)n2)cc1,IC50,Hexokinase HKDC1,12.1 µM (active)
c1coc(-c2nn3c(-c4ccco4)nnc3s2)c1,IC50,Bcl-2-like protein 10,86.5 µM (inactive)
same,IC50,Estrogen receptor beta,24 µM (active)
COc1ccc(N2C(=O)/C(=C/C=C/c3ccccc3[N+](=O)[O-])C(=O)NC2=S)cc1,IC50,[5],0.73 µM (active)
same,IC50,[10],> 66.6 µM (inactive)
same,IC50,Beta-galactosidase,> 66.6 µM (inactive)
same,IC50,[6],50 µM (inactive)
O=C(Nc1ccc(N2C(=O)CCC2=O)c(Cl)c1)c1ccccn1,EC50,[11],6.89 µM (active)
